“Also recorded” adds a separate entry of the source.
Assays:
HepG2 cells = test: alkaline Comet assay, DNA strand breaks; format: cell-based; conditions: human HepG2 cells, exposure 24 h, 37° C.
Description: (§1) We recently examined the genotoxicity of NNA in human HepG2 cells as well as its ability to modify both 2-deoxyguanosine (dGuo) and 2-deoxycytodine (dCyt) in vitro. […] In the reaction of NNA with dGuo, several adducts were identified with HPLC-UV spectrum, ESI-MS/MS and NMR. These include 8-oxo-2′-deoxyguanosine (8-oxo-dG), 0^6-methyl-dG, and N^2-methyl-dG. NNA also forms a bulky dG adduct with m/z 455.17 for (M+H)^+ in mass spectrum, which is due to the condensation of NNA and dG with the elimination of H2O and two hydrogen molecules. In addition, NNA causes novel DNA sugar damage, forming […]. […] In addition, the NNA-specific DNA adducts identified can be used as specific biomarkers of THS exposure.
FIGS. 3A and 3B: Genotoxic effect of NNA in human HepG2 cells as measured by the Comet assay. HepG2 cells were exposed to varying doses of NNA dissolved in DMEM medium with/without 10% FBS for 24 h. […] (A) Effect of acute THS and THS+HONO. HepG2 cells were exposed to samples at 37° C. for 24 h. The extent of DNA damage was analyzed by % DNA in tail to total DNA from 90 cells. (B) HepG2 cells were exposed to chronic THS at varying dilutions under identical conditions as above.
(§2) Using the alkaline Comet assay, we examined the potential of NNA to cause DNA strand breaks in cultured human hepatocellular carcinoma (HepG2) cells. […]

2-deoxyguanosine (dGuo) = test: reaction of NNA with dGuo in vitro, DNA adduct formation; conditions: HPLC-UV, ESI-MS/MS, NMR
Description: as §1
We discovered that NNA reacts with dGuo (“dG”) and dCyt (“dC”) to form various DNA adducts. […] The chemical structure of this adduct has been proposed and validated using various NMR experiments. Because of its specific structural characteristic, this adduct can serve as a DNA damage “signature” by NNA, thus a potential biomarker for monitoring exposure to thirdhand smoke.
as §2

2-deoxycytidine (dCyt) = test: reaction of NNA with dCyt in vitro, adduct formation
Description: NNA (1-(N-methyl-N-nitrosamino)-1-(3-pyridinyl)-4-butanal) is an important member of the carcinogenic/mutagenic tobacco-specific nitrosamines (TSNAs) and an unique constituent found in the most recently identified health risk called thirdhand smoke (THS). We studied the reactions of NNA with 2-deoxyguanosine (dGuo) and 2-deoxycytidine (dCyt) in vitro with regard to its ability to form stable base adducts, which have not been reported in literature at all. Herein we have identified and characterize potential specific THS biomarkers. We also describe experimental evidence for detrimental effects from exposure to THS, which could be useful for framing and enforcing new policies against indoor smoking.
Herein we describe the first evidence that reaction of NNA with dCyt in vitro results in formation of stable base adducts too, which have not been hereto for been reported in literature.
Using the alkaline Comet assay, we examined the potential of NNA to cause DNA strand breaks in cultured human hepatocellular carcinoma (HepG2) cells. Moreover, the ability of NNA to form DNA adducts with dGuo and dCyt in vitro was investigated and characterized using HPLC-UV, electrospray ionization mass spectrometry (ESI-MS/MS) and NMR. […]

**Q.** `CN(CCCC(=O)c1cccnc1)N=O` [NNK, 4-(methylnitrosamino)-1-(3-pyridyl)-1-butanone, reference compound] was tested. Which “DNA damage / DNA strand breaks (Comet assay)” value (HepG2 cells) did it give?
**A.** induces DNA damage at low nanomolar concentrations; also recorded: causes significant DNA damage at nM concentrations

**Q.** How did the “DNA damage / DNA strand breaks (Comet assay)” value (HepG2 cells) turn out when `CN(N=O)C(CCC=O)c1cccnc1` (stereo not shown) [NNA, 1-(N-methyl-N-nitrosamino)-1-(3-pyridinyl)-4-butanal] was run?
**A.** concentration-dependent DNA strand breaks; also recorded: induces DNA damage at low nanomolar concentrations; also recorded: results in DNA strand breaks in exposed cells; also recorded: causes significant DNA damage at nM concentrations

**Q.** And the “formation of DNA adducts with dGuo” value (2-deoxyguanosine (dGuo))?
**A.** forms multiple DNA adducts in vitro

**Q.** What about the “formation of adducts with dC” value (2-deoxycytidine (dCyt)) of the same compound?
**A.** reacts with dC to form multiple adducts

— patent publication US10538549B2, “NNA-DNA adducts as biomarkers for detecting exposure to thirdhand smoke” (The Regents of the University of California, priority 2014, dated 2020)
